Test results reported in PubChem BioAssay AID190 (DTP/NCI, 2004).
Where “and” joins values, the source holds several entries; their conditions need not be identical. Identical values can stand only once. Toxic doses and inconclusive results are not listed. The calls were made as follows: active = survival T/C of 150% or more; inactive = T/C below 125% in these data.

Test system: AKR/Lw mice, AKR lymphoma ip, median survival T/C
Experiment: NCI In Vivo Anticancer Drug Screen. Data for tumor model Lymphoma AKR (Transplanted) (intraperitoneal) in AKR/Lw mice
Details: endpoint: median survival time, higher = longer survival
Experimental: The antitumor activity of compounds was measured in mice bearing transplantable tumors. Survival or tumor size were measured and the results are expressed as the measurement made in the treated group (T) divided by the measurement made in the vehicle treated control group (C). The tumor model used in this assay is Lymphoma AKR (Transplanted) (intraperitoneal) in AKR/Lw mice

[1] = dose: 0.05 mg/kg/injection, schedule: Q01DX010 (ip), vehicle: saline
[2] = dose: 0.1 mg/kg/injection, schedule: Q01DX010 (ip), vehicle: saline
[3] = dose: 100.0 mg/kg/injection, schedule: Q01DX001 (ip), vehicle: saline
[4] = dose: 100.0 mg/kg/injection, schedule: Q04DX003 (ip), vehicle: Klucel (hydroxypropylcellulose) (HPC)
[5] = dose: 200.0 mg/kg/injection, schedule: Q01DX001 (ip), vehicle: saline
[6] = dose: 200.0 mg/kg/injection, schedule: Q04DX003 (ip), vehicle: Klucel (hydroxypropylcellulose) (HPC)
[7] = dose: 400.0 mg/kg/injection, schedule: Q01DX001 (ip), vehicle: saline
[8] = dose: 100.0 mg/kg/injection, schedule: Q01DX001 (ip), vehicle: Klucel (hydroxypropylcellulose) (HPC)
[9] = dose: 200.0 mg/kg/injection, schedule: Q01DX001 (ip), vehicle: Klucel (hydroxypropylcellulose) (HPC)
[10] = dose: 400.0 mg/kg/injection, schedule: Q01DX001 (ip), vehicle: Klucel (hydroxypropylcellulose) (HPC)
[11] = dose: 12.5 mg/kg/injection, schedule: Q01DX009 (ip), vehicle: saline
[12] = dose: 25.0 mg/kg/injection, schedule: Q04DX003 (ip), vehicle: saline
[13] = dose: 50.0 mg/kg/injection, schedule: Q04DX003 (ip), vehicle: saline
[14] = dose: 100.0 mg/kg/injection, schedule: Q04DX003 (ip), vehicle: other
[15] = dose: 200.0 mg/kg/injection, schedule: Q01DX009 (ip), vehicle: saline
[16] = dose: 400.0 mg/kg/injection, schedule: Q01DX009 (ip), vehicle: saline
[17] = dose: 400.0 mg/kg/injection, schedule: Q04DX003 (ip), vehicle: other
[18] = dose: 500.0 mg/kg/injection, schedule: Q04DX003 (ip), vehicle: saline
[19] = dose: 600.0 mg/kg/injection, schedule: Q01DX001 (ip), vehicle: saline
[20] = dose: 600.0 mg/kg/injection, schedule: Q04DX003 (ip), vehicle: saline

Measured: T/C

Cc1c(N)nc([C@H](CC(N)=O)NC[C@H](N)C(N)=O)nc1C(=O)N[C@H](C(=O)N[C@H](C)[C@@H](O)[C@H](C)C(=O)N[C@H](C(=O)NCCc1nc(-c2nc(C(=O)NCCC[S+](C)C)cs2)cs1)[C@@H](C)O)C(OC1OC(CO)C(O)C(O)C1OC1OC(CO)C(O)C(OC(N)=O)C1O)c1cnc[nH]1 (some centres undefined)
inactive: [1] 120 % of control | [2] 103 % of control | dose: 0.25 mg/kg/injection, schedule: Q01DX010 (ip), vehicle: saline 116 % of control | dose: 0.4 mg/kg/injection, schedule: Q01DX010 (ip), vehicle: saline 113 % of control | dose: 0.5 mg/kg/injection, schedule: Q01DX010 (ip), vehicle: saline 106 % of control | dose: 0.75 mg/kg/injection, schedule: Q01DX010 (ip), vehicle: saline 106 % of control | dose: 1.0 mg/kg/injection, schedule: Q01DX010 (ip), vehicle: saline 100 % of control | dose: 1.5 mg/kg/injection, schedule: Q01DX010 (ip), vehicle: saline 93 % of control | dose: 1.9 mg/kg/injection, schedule: Q01DX010 (ip), vehicle: saline 95 % of control | dose: 2.0 mg/kg/injection, schedule: Q01DX010 (ip), vehicle: saline 100 % of control

Cn1c(O)c(C=N)c(=O)[nH]c1=O
inactive: [3] 113 % of control | [4] 104 % of control | [5] 94 % of control | [6] 93 % of control | [7] 113 % of control | dose: 400.0 mg/kg/injection, schedule: Q04DX003 (ip), vehicle: Klucel (hydroxypropylcellulose) (HPC) 97 % of control

CCOC(=O)C(O)C(C#N)c1ccccc1 (centres undefined)
inactive: dose: 100.0 mg/kg/injection, schedule: Q01DX001 (ip), vehicle: other 103 % of control | dose: 200.0 mg/kg/injection, schedule: Q01DX001 (ip), vehicle: other 103 % of control | dose: 400.0 mg/kg/injection, schedule: Q01DX001 (ip), vehicle: other 100 % of control

CC(=O)CC(=O)c1ccccc1.CC(=O)CC(=O)c1ccccc1.CC(=O)CC(=O)c1ccccc1.[Co]
inactive: dose: 25.0 mg/kg/injection, schedule: Q01DX001 (ip), vehicle: Klucel (hydroxypropylcellulose) (HPC) 100 % of control | dose: 50.0 mg/kg/injection, schedule: Q01DX001 (ip), vehicle: Klucel (hydroxypropylcellulose) (HPC) 100 % of control

CC(C)n1c(=S)[nH]c2ccccc2c1=O
inactive: [8] 90 % of control | [9] 118 % of control | [10] 104 % of control

COc1cccc2c1C(=O)c1c(O)c3c(c(O)c1C2=O)C[C@@](O)(C(C)=O)C[C@@H]3OC1CC(N)C(O)C(C)O1 (some centres undefined)
inactive: dose: 0.02 mg/kg/injection, schedule: Q01DX015 (ip), vehicle: saline 100 % of control | [1] 112 % of control | dose: 0.05 mg/kg/injection, schedule: Q01DX015 (ip), vehicle: saline 115 % of control | [2] 119 % of control | dose: 0.1 mg/kg/injection, schedule: Q01DX015 (ip), vehicle: saline 101 % of control and 110 % of control | dose: 0.18 mg/kg/injection, schedule: Q01DX015 (ip), vehicle: saline 106 % of control | dose: 0.2 mg/kg/injection, schedule: Q01DX010 (ip), vehicle: saline 122 % of control | dose: 0.2 mg/kg/injection, schedule: Q01DX015 (ip), vehicle: saline 106 % of control | dose: 0.3 mg/kg/injection, schedule: Q01DX015 (ip), vehicle: saline 99 % of control | dose: 0.37 mg/kg/injection, schedule: Q01DX015 (ip), vehicle: saline 121 % of control | dose: 0.4 mg/kg/injection, schedule: Q01DX015 (ip), vehicle: saline 103 % of control and 113 % of control

ClC1=C(Cl)C2(Cl)C3(Cl)C(Cl)=C(Cl)C(Cl)(C34OCCO4)C2(Cl)C12OCCO2 (centres undefined)
inactive: [3] 96 % of control | [5] 108 % of control | [7] 108 % of control

S=C1NC(c2ccccc2)NC(c2ccccc2)S1 (centres undefined)
inactive: [8] 92 % of control | [9] 92 % of control | [10] 96 % of control

c1cc2cc3c(cc2cc1CC1NCCc2cc4c(cc21)OCO4)OCO3 (centres undefined)
inactive: [8] 94 % of control | [4] 96 % of control | [9] 105 % of control | [10] 94 % of control

CC(=O)N(C(C)=O)c1ccc(C)cc1
inactive: [3] 93 % of control | [5] 104 % of control | [7] 104 % of control

NC(CSC(c1ccccc1)(c1ccccc1)c1ccc(CO)cc1)C(=O)O (centres undefined)
inactive: [8] 100 % of control | [9] 94 % of control | [10] 110 % of control

Cc1cccc(C)c1NC(=S)N(C)C
inactive: dose: 2.5 mg/kg/injection, schedule: Q04DX003 (ip), vehicle: Klucel (hydroxypropylcellulose) (HPC) 91 % of control | dose: 5.0 mg/kg/injection, schedule: Q04DX003 (ip), vehicle: Klucel (hydroxypropylcellulose) (HPC) 94 % of control | dose: 10.0 mg/kg/injection, schedule: Q04DX003 (ip), vehicle: Klucel (hydroxypropylcellulose) (HPC) 102 % of control | [8] 92 % of control | [10] 111 % of control

NC(=O)c1[nH]nc(C2OC(CO)C(O)C2O)c1O (centres undefined)
inactive: dose: 0.07 mg/kg/injection, schedule: Q01DX009 (ip), vehicle: saline 86 % of control | dose: 0.25 mg/kg/injection, schedule: Q04DX003 (ip), vehicle: saline 105 % of control | dose: 0.5 mg/kg/injection, schedule: Q04DX003 (ip), vehicle: saline 105 % of control | dose: 0.75 mg/kg/injection, schedule: Q04DX003 (ip), vehicle: saline 88 % of control | dose: 1.0 mg/kg/injection, schedule: Q04DX003 (ip), vehicle: saline 90 % of control | dose: 7.5 micrograms/kg/injection, schedule: Q01DX009 (ip), vehicle: saline 110 % of control | dose: 15.0 micrograms/kg/injection, schedule: Q01DX009 (ip), vehicle: saline 121 % of control | dose: 30.0 micrograms/kg/injection, schedule: Q01DX009 (ip), vehicle: saline 103 % of control | dose: 60.0 micrograms/kg/injection, schedule: Q01DX009 (ip), vehicle: saline 121 % of control

S=c1[nH]nc(NC2CCCCC2)s1
inactive: [8] 100 % of control | [4] 100 % of control | [9] 90 % of control | [6] 90 % of control | [10] 87 % of control

OCC1OC(n2cnc3c(Cl)ncnc32)C(O)C1O (centres undefined)
inactive: dose: 6.2 mg/kg/injection, schedule: Q01DX009 (ip), vehicle: saline 100 % of control | [11] 94 % of control and 96 % of control and 105 % of control | [12] 93 % of control | dose: 50.0 mg/kg/injection, schedule: Q01DX001 (ip), vehicle: saline 100 % of control | [13] 100 % of control and 113 % of control and 116 % of control | [3] 94 % of control and 102 % of control and 110 % of control | [14] 88 % of control | dose: 150.0 mg/kg/injection, schedule: Q04DX003 (ip), vehicle: saline 100 % of control | [15] 87 % of control and 101 % of control and 102 % of control | dose: 200.0 mg/kg/injection, schedule: Q04DX003 (ip), vehicle: other 113 % of control | dose: 250.0 mg/kg/injection, schedule: Q04DX003 (ip), vehicle: saline 118 % of control | [16] 90 % of control and 96 % of control | [17] 119 % of control and 123 % of control | [18] 88 % of control | [19] 90 % of control and 92 % of control | [20] 90 % of control (2×) and 113 % of control

CC[CH](C)[Hg][c]1cccc2ccccc12 (centres undefined)
inactive: [8] 91 % of control | [9] 86 % of control

Nc1nc(=S)c2ncn(C3CC(O)C(CO)O3)c2[nH]1 (centres undefined)
inactive: [11] 93 % of control | [12] 108 % of control | [13] 102 % of control and 119 % of control | [3] 100 % of control | [14] 98 % of control and 123 % of control | [5] 102 % of control | [15] 86 % of control and 105 % of control and 116 % of control | dose: 200.0 mg/kg/injection, schedule: Q04DX003 (ip), vehicle: saline 108 % of control and 112 % of control and 116 % of control | dose: 300.0 mg/kg/injection, schedule: Q04DX003 (ip), vehicle: saline 119 % of control | [16] 103 % of control and 110 % of control | [17] 113 % of control | dose: 400.0 mg/kg/injection, schedule: Q04DX003 (ip), vehicle: saline 116 % of control and 122 % of control | dose: 500.0 mg/kg/injection, schedule: Q01DX001 (ip), vehicle: saline 105 % of control and 107 % of control and 121 % of control | [18] 103 % of control | [19] 102 % of control and 111 % of control and 119 % of control | [20] 93 % of control and 100 % of control
